Test results reported in the CheMixHub viscosity set.
Several values for one entry are separate records, joined by “and”; a condition that tells them apart may be missing. Identical values can stand only once.

Assay: xn = mol fraction of the nth substance listed

CC(=O)c1ccccc1 + Cc1ccccc1
viscosity, 101 kPa
Conditions | x2 = 0.1093 | x2 = 0.2145 | x2 = 0.3206 | x2 = 0.4281 | x2 = 0.5229 | x2 = 0.6213 | x2 = 0.7157 | x2 = 0.8392 | x2 = 0.9074
298.15 K | 1.561 mPa·s and 1.561 mPa·s | 1.446 mPa·s and 1.446 mPa·s | 1.329 mPa·s and 1.329 mPa·s | 1.211 mPa·s and 1.211 mPa·s | 1.105 mPa·s and 1.105 mPa·s | 0.9949 mPa·s and 0.9949 mPa·s | 0.8879 mPa·s and 0.8879 mPa·s | 0.7472 mPa·s and 0.7472 mPa·s | 0.6694 mPa·s and 0.6694 mPa·s
303.15 K | 1.426 mPa·s and 1.426 mPa·s | 1.323 mPa·s and 1.323 mPa·s | 1.218 mPa·s and 1.218 mPa·s | 1.112 mPa·s and 1.112 mPa·s | 1.018 mPa·s and 1.018 mPa·s | 0.9188 mPa·s and 0.9188 mPa·s | 0.8233 mPa·s and 0.8233 mPa·s | 0.6978 mPa·s and 0.6978 mPa·s | 0.6286 mPa·s and 0.6286 mPa·s
308.15 K | 1.31 mPa·s and 1.31 mPa·s | 1.217 mPa·s and 1.217 mPa·s | 1.123 mPa·s and 1.123 mPa·s | 1.027 mPa·s and 1.027 mPa·s | 0.9425 mPa·s and 0.9425 mPa·s | 0.8535 mPa·s and 0.8535 mPa·s | 0.7678 mPa·s and 0.7678 mPa·s | 0.6554 mPa·s and 0.6554 mPa·s | 0.5933 mPa·s and 0.5933 mPa·s

FCC(F)(F)F + OCCOCCO
viscosity [mPa·s], 101.32 kPa
Conditions | x2 = 0.788 | x2 = 0.814 | x2 = 0.816 | x2 = 0.844 | x2 = 0.845 | x2 = 0.892 | x2 = 0.893
293.15 K | 12.4 | 14.3 | – | 16.7 | – | 21 | –
313.15 K | – | – | 6.78 | – | 7.29 | – | 8.26

CN1CCCCCC1=O + O
298.16 K, 101 kPa
Conditions | viscosity [mPa·s]
x2 = 0.0975 | 5.35
x2 = 0.2528 | 6.17
x2 = 0.4046 | 7.19
x2 = 0.4996 | 7.85
x2 = 0.577 | 8.2
x2 = 0.63 | 8.28
x2 = 0.7444 | 7.43
x2 = 0.8512 | 5.1

O=S(Cl)Cl + C1CCCCC1
298.15 K, 101 kPa
Conditions | viscosity [mPa·s]
x1 = 0.272 | 0.7201
x1 = 0.466 | 0.6634
x1 = 0.806 | 0.6183
x1 = 0.937 | 0.6156

CCCCCCCCC + CCCCCCCCCCCC
298.15 K, 101.33 kPa
Conditions | viscosity [mPa·s]
x1 = 0.0957 | 1.273
x1 = 0.1995 | 1.187
x1 = 0.3049 | 1.111
x1 = 0.4056 | 1.022
x1 = 0.5088 | 0.969
x1 = 0.6103 | 0.8955
x1 = 0.7039 | 0.8282
x1 = 0.8049 | 0.7721
x1 = 0.9023 | 0.7118

Cc1cccc(C)n1 + CO
101 kPa
Conditions | viscosity [mPa·s]
298.01 K, x1 = 0.1115 | 0.705
298.12 K, x1 = 0.2763 | 0.857
298.18 K, x1 = 0.4001 | 0.912
298.18 K, x1 = 0.5482 | 0.909
298.19 K, x1 = 0.8449 | 0.846
298.24 K, x1 = 0.2399 | 0.823
298.29 K, x1 = 0.7013 | 0.891
303.08 K, x1 = 0.1115 | 0.655
303.15 K, x1 = 0.8449 | 0.789
303.17 K, x1 = 0.2763 | 0.793
303.21 K, x1 = 0.2399 | 0.763
303.21 K, x1 = 0.4001 | 0.85
303.24 K, x1 = 0.7013 | 0.828
303.25 K, x1 = 0.5482 | 0.84
308.08 K, x1 = 0.1115 | 0.613
308.18 K, x1 = 0.8449 | 0.737
308.19 K, x1 = 0.2763 | 0.739
308.24 K, x1 = 0.5482 | 0.782
308.25 K, x1 = 0.2399 | 0.71
308.26 K, x1 = 0.7013 | 0.774
312.95 K, x1 = 0.2399 | 0.662
313.15 K, x1 = 0.1115 | 0.572
313.22 K, x1 = 0.8449 | 0.691
313.25 K, x1 = 0.2763 | 0.688
313.27 K, x1 = 0.4001 | 0.729
313.33 K, x1 = 0.7013 | 0.725
318.22 K, x1 = 0.1115 | 0.535
318.28 K, x1 = 0.8449 | 0.65
318.32 K, x1 = 0.2399 | 0.617
318.33 K, x1 = 0.2763 | 0.643
318.33 K, x1 = 0.4001 | 0.682
318.35 K, x1 = 0.5482 | 0.688
318.38 K, x1 = 0.7013 | 0.68

CCC(O)CC + c1ccccc1
293.15 K, 101 kPa
Conditions | viscosity [mPa·s]
x1 = 0.00635 | 0.6446
x1 = 0.01101 | 0.6433
x1 = 0.01253 | 0.643
x1 = 0.01995 | 0.6415
x1 = 0.02106 | 0.6411
x1 = 0.02501 | 0.641
x1 = 0.02806 | 0.6407
x1 = 0.03344 | 0.6406
x1 = 0.03446 | 0.6405
x1 = 0.03706 | 0.6399
x1 = 0.04178 | 0.6401
x1 = 0.04896 | 0.6415
x1 = 0.05587 | 0.6414
x1 = 0.06451 | 0.6436
x1 = 0.08637 | 0.6486
x1 = 0.1808 | 0.6856
x1 = 0.2725 | 0.7429
x1 = 0.3756 | 0.835
x1 = 0.468 | 0.9578
x1 = 0.6521 | 1.402
x1 = 0.7757 | 1.943
x1 = 0.8899 | 2.92

CCCCCCCCc1ccccc1 + CCCCCCCCCCCCCCCC
viscosity [mPa·s], 102 kPa
Conditions | x1 = 0.1177 | x1 = 0.2297 | x1 = 0.3377 | x1 = 0.4423 | x1 = 0.5431 | x1 = 0.6411 | x1 = 0.7351 | x1 = 0.8263 | x1 = 0.9146
293.15 K | 3.28 | 3.16 | 3.05 | 2.94 | 2.85 | 2.78 | 2.71 | 2.65 | 2.62
303.15 K | 2.61 | 2.52 | 2.44 | 2.36 | 2.3 | 2.25 | 2.19 | 2.15 | 2.12
313.15 K | 2.13 | 2.06 | 2 | 1.94 | 1.89 | 1.86 | 1.81 | 1.78 | 1.76
323.15 K | 1.77 | 1.72 | 1.67 | 1.63 | 1.59 | 1.56 | 1.52 | 1.5 | 1.48

C1COCO1 + c1ccccc1
101.3 kPa
Conditions | viscosity [mPa·s]
298.15 K, x2 = 0.0968 | 0.5944
298.15 K, x2 = 0.199 | 0.597
298.15 K, x2 = 0.3032 | 0.5997
298.15 K, x2 = 0.4021 | 0.6022
298.15 K, x2 = 0.505 | 0.6045
298.15 K, x2 = 0.6016 | 0.6064
298.15 K, x2 = 0.704 | 0.6079
298.15 K, x2 = 0.7993 | 0.6089
298.15 K, x2 = 0.8946 | 0.6094
313.15 K, x2 = 0.1006 | 0.5001
313.15 K, x2 = 0.1994 | 0.5003
313.15 K, x2 = 0.299 | 0.5005
313.15 K, x2 = 0.3987 | 0.5005
313.15 K, x2 = 0.5003 | 0.5004
313.15 K, x2 = 0.5985 | 0.4998
313.15 K, x2 = 0.6993 | 0.4988
313.15 K, x2 = 0.7998 | 0.4976
313.15 K, x2 = 0.8987 | 0.4959

CCCCCCCC/C=C\CCCCCCCC(=O)OCC(COC(=O)CCCCCCC/C=C\CCCCCCCC)OC(=O)CCCCCCC/C=C\CCCCCCCC + Cc1ccccc1
viscosity [mPa·s], 101.33 kPa
Conditions | x1 = 0.000651 | x1 = 0.001141 | x1 = 0.003237 | x1 = 0.006694 | x1 = 0.009965 | x1 = 0.015 | x1 = 0.01736 | x1 = 0.02174 | x1 = 0.03032 | x1 = 0.04061
293.15 K | 0.6007 | 0.6111 | 0.6517 | 0.7201 | 0.7951 | 0.9362 | 0.971 | 1.073 | 1.306 | 1.616
298.15 K | 0.5652 | 0.5749 | 0.6124 | 0.6756 | 0.7447 | 0.8679 | 0.9064 | 0.9993 | 1.212 | 1.493
303.15 K | 0.5329 | 0.5419 | 0.5768 | 0.6355 | 0.6992 | 0.8126 | 0.8482 | 0.9337 | 1.129 | 1.385
308.15 K | 0.5016 | 0.5101 | 0.5425 | 0.5965 | 0.6557 | 0.7602 | 0.793 | 0.871 | 1.051 | 1.284
313.15 K | 0.4748 | 0.4827 | 0.513 | 0.5635 | 0.6185 | 0.7155 | 0.7459 | 0.8182 | 0.9851 | 1.198

CCC(O)CC + COc1ccccc1
viscosity [mPa·s], 101.33 kPa
Conditions | x2 = 0.1007 | x2 = 0.2006 | x2 = 0.3001 | x2 = 0.3996 | x2 = 0.5 | x2 = 0.5999 | x2 = 0.6973 | x2 = 0.7998 | x2 = 0.8971
303.15 K | 2.787 | 2.043 | 1.547 | 1.238 | 1.062 | 0.976 | 0.941 | 0.927 | 0.917
313.15 K | 1.745 | 1.355 | 1.093 | 0.938 | 0.863 | 0.835 | 0.824 | 0.811 | 0.793
323.15 K | 1.261 | 1.041 | 0.888 | 0.795 | 0.747 | 0.729 | 0.719 | 0.709 | 0.697

CCCOCC(C)O (centres undefined) + CCO
viscosity [mPa·s], 101.33 kPa
Conditions | 298.15 K | 308.15 K | 318.15 K
x1 = 0.05 | 1.18 | 0.974 | 0.813
x1 = 0.1 | 1.272 | 1.041 | 0.863
x1 = 0.15 | 1.363 | 1.108 | 0.911
x1 = 0.2 | 1.448 | 1.171 | 0.96
x1 = 0.25 | 1.534 | 1.231 | 1.005
x1 = 0.3 | 1.612 | 1.288 | 1.046
x1 = 0.35 | 1.716 | 1.362 | 1.105
x1 = 0.4 | 1.79 | 1.417 | 1.142
x1 = 0.45 | 1.862 | 1.467 | 1.177
x1 = 0.5 | 1.928 | 1.513 | 1.21
x1 = 0.55 | 1.998 | 1.557 | 1.241
x1 = 0.6 | 2.056 | 1.602 | 1.274
x1 = 0.65 | 2.113 | 1.651 | 1.297
x1 = 0.7 | 2.168 | 1.674 | 1.322
x1 = 0.75 | 2.219 | 1.706 | 1.345
x1 = 0.8 | 2.264 | 1.734 | 1.368
x1 = 0.8498 | 2.307 | 1.766 | 1.389
x1 = 0.9 | 2.354 | 1.79 | 1.406
x1 = 0.95 | 2.369 | 1.815 | 1.414

C1COCO1 + C1CCCCC1
viscosity [mPa·s], 101.3 kPa
Conditions | x2 = 0.0994 | x2 = 0.1978 | x2 = 0.3014 | x2 = 0.3991 | x2 = 0.4961 | x2 = 0.5974 | x2 = 0.6998 | x2 = 0.8012 | x2 = 0.8994
298.15 K | 0.5886 | 0.593 | 0.6047 | 0.6199 | 0.6405 | 0.6642 | 0.6971 | 0.7404 | 0.8026
313.15 K | 0.4948 | 0.4959 | 0.5024 | 0.5119 | 0.5256 | 0.5441 | 0.5653 | 0.5967 | 0.6392

CC(=O)c1ccccc1 + COC(=O)c1ccccc1
viscosity [mPa·s], 101 kPa
Conditions | x2 = 0.0946 | x2 = 0.1898 | x2 = 0.2861 | x2 = 0.386 | x2 = 0.4823 | x2 = 0.5819 | x2 = 0.6825 | x2 = 0.7877 | x2 = 0.8917
303.15 K | 1.527 | 1.558 | 1.588 | 1.611 | 1.608 | 1.606 | 1.6 | 1.593 | 1.614
313.15 K | 1.285 | 1.307 | 1.329 | 1.348 | 1.341 | 1.334 | 1.322 | 1.315 | 1.329
